Measurements published in patent US20230110351A1, “METHODS FOR TREATING PARKINSON'S DISEASE WITH SEPIAPTERIN” (PTC Therapeutics MP, Inc., priority 2020, published 2023).
Read-outs that look alike come from different tables or passages of the source.

Columns and labels:
[1] = Food effect on administration of sepiapterin: plasma sepiapterin and BH4, fasted vs fed; type: in vivo; conditions: sepiapterin 10 mg/kg oral
Method: Method: Subjects received two oral doses of sepiapterin (10 mg/kg) separated by one week in a fasted and fed state. Subjects were fed a standard high-fat (approximately 50 percent of total caloric content of the meal) and high-calorie (approximately […] calories) meal starting 30 minutes prior to receiving their second oral dose of sepiapterin on Day 8.
Sampling for PK analysis occurred predose on Days 1 and 8 (within 30 minutes before dosing) and 0.5 hr, 1 hr, 2 hr, 4 hr, 8 hr, 12 hr, and 24 hr after the doses on Days 1 and 8. The blood concentrations of sepiapterin and BH4 were analyzed by MNG Labs.

[2] = Pharmacokinetic parameters for BH4 after single dose of sepiapterin or BH4 in fasted subjects; type: in vivo
Method: Six subjects received sepiapterin in each group and three subjects received BH4 in each group where this treatment was administered.
Values shown are means of plasma concentrations of BH4 following administration at the doses shown.

[3] = type: in vivo
Method: Method: Twelve subjects were given a single dose (10 mg/kg) of sepiapterin under fasting conditions and then 7 days later under fed conditions. Standard definitions of adverse events (AE) were used. All-cause AE were those that occurred at any time; treatment-emergent adverse events (TEAE) were those that occurred at or after the time of administration of study treatment. TEAEs related to study drug were based on the opinion of the investigator. Serious AE were defined as life threatening or caused death, hospitalization or prolongation of existing hospitalization, or were a persistent or significant disability/incapacity or a substantial disruption of the ability to conduct normal life functions, or a congenital anomaly/birth defect.

[4] = CSF levels of sepiapterin, BH4, BH2, HVA and 5-HIAA after administration of sepiapterin; type: in vivo
Method: The cerebrospinal fluid (CSF) of selected subjects was collected via lumbar puncture on Day1 (before dose) and on Day 7 (i.e., following daily dosing for 7 days) approximately 30 minutes from time of the maximum observed plasma BH4 concentration (Tmax) as determined from the blood analysis. The cerebral spinal fluid (CSF) was analyzed. Descriptive statistics are provided to characterize any changes in neurotransmitter metabolism between the Day 1, and Day 7 sample results. Method: Analyses were conducted in CSF samples of subjects administered 60 mg/kg sepiapterin or placebo. The following analytes were measured: sepiapterin, BH4, BH2, homovanillic acid (HVA), and 5-hydroxyindoleacetic acid (HIAA). Descriptive (n, mean, SD, median, minimum, maximum) statistics for these analytes at Day 1 and Day 7+/−30 minutes from Tmax and change from baseline at Day 7 were determined for each analyte.

[5] = Pharmacokinetic analysis of multiple doses of sepiapterin (once daily, 7 days, fed subjects); type: in vivo
Source text: Methods: Three cohorts of eight fed subjects each were randomized to receive once-daily sepiapterin or placebo for 7 days in a 6:2 ratio. A sentinel dose strategy was also used for administration of the highest sepiapterin dose.

[6] = 60 mg/kg sepiapterin arm, Day 1 (before dose)
[7] = 60 mg/kg sepiapterin, Day 7, +/-30 minutes from BH4 Tmax
[8] = 60 mg/kg sepiapterin, Day 7, same subject
[9] = Day 1 pre-dose, one subject with low baseline
[10] = human, plasma, po, 5 mg/kg, sepiapterin 5 mg/kg once daily, Day 1
[11] = human, plasma, po, 5 mg/kg, sepiapterin 5 mg/kg once daily, Day 7
[12] = human, plasma, po, 20 mg/kg, sepiapterin 20 mg/kg once daily, Day 1
[13] = human, plasma, po, 20 mg/kg, sepiapterin 20 mg/kg once daily, Day 7
[14] = human, plasma, po, 60 mg/kg, sepiapterin 60 mg/kg once daily, Day 1
[15] = human, plasma, po, 60 mg/kg, sepiapterin 60 mg/kg once daily, Day 7

C[C@H](O)C(=O)C1=Nc2c(nc(N)[nH]c2=O)NC1 [sepiapterin]
concentration at 0 h ([1]; human, plasma, fasted, 0 h (predose), read-out: Sepiapterin Concentration in Plasma, Maximum): 0 nM
concentration at 0.5 h ([1]; human, plasma, fasted, 0.5 h, read-out: Sepiapterin Concentration in Plasma, Minimum): 0 nM
concentration at 4 h ([1]; human, plasma, fasted, 4 h, read-out: Sepiapterin Concentration in Plasma, Minimum): 0 nM
concentration at 8 h ([1]; human, plasma, fasted, 8 h, read-out: Sepiapterin Concentration in Plasma, Maximum): 0 nM
concentration at 12 h ([1]; human, plasma, fasted, 12 h, read-out: Sepiapterin Concentration in Plasma, Maximum): 0 nM
concentration at 24 h ([1]; human, plasma, fasted, 24 h, read-out: Sepiapterin Concentration in Plasma, Maximum): 0 nM
concentration at 1 h ([1]; human, plasma, fed, 1 h, read-out: Sepiapterin Concentration in Plasma, Minimum): 0 nM
concentration at 2 h ([1]; human, plasma, fed, 2 h, read-out: Sepiapterin Concentration in Plasma, Minimum): 0 nM
Cmax of BH4 in the plasma, fed compared to fasted [1]: much higher
Cmax of sepiapterin in the plasma, fed compared to fasted [1]: much lower
Geometric mean ratio (fasted/fed, 90% CI) for plasma sepiapterin AUClast [1]: 1.29 (0.84 to 2.00)
Geometric mean ratio (fasted/fed, 90% CI) for plasma sepiapterin Cmax [1]: 1.57 (1.21 to 2.0)
Sepiapterin Concentration in Plasma, Mean ([1]; fasted, 0 h (predose)): 0 nM
Sepiapterin Concentration in Plasma, Median ([1]; fasted, 0 h (predose)): 0 nM
concentration at 2 h ([1]; fasted, 0 h (predose), read-out: Sepiapterin Concentration in Plasma, Minimum): 0 nM
Sepiapterin Concentration in Plasma, Mean ([1]; fasted, 8 h): 0 nM
Sepiapterin Concentration in Plasma, Median ([1]; fasted, 8 h): 0 nM
concentration at 2 h ([1]; fasted, 8 h, read-out: Sepiapterin Concentration in Plasma, Minimum): 0 nM
Sepiapterin Concentration in Plasma, Mean ([1]; fasted, 12 h): 0 nM
Sepiapterin Concentration in Plasma, Median ([1]; fasted, 12 h): 0 nM
concentration at 2 h ([1]; fasted, 12 h, read-out: Sepiapterin Concentration in Plasma, Minimum): 0 nM
Sepiapterin Concentration in Plasma, Mean ([1]; fasted, 24 h): 0 nM
Sepiapterin Concentration in Plasma, Median ([1]; fasted, 24 h): 0 nM
concentration at 2 h ([1]; fasted, 24 h, read-out: Sepiapterin Concentration in Plasma, Minimum): 0 nM
Sepiapterin Concentration in Plasma, Mean ([1]; fed, 0 h (predose)): 0 nM
Sepiapterin Concentration in Plasma, Median ([1]; fed, 0 h (predose)): 0 nM
concentration at 24 h ([1]; fed, 0 h (predose), read-out: Sepiapterin Concentration in Plasma, Maximum): 0 nM
concentration at 2 h ([1]; fed, 0 h (predose), read-out: Sepiapterin Concentration in Plasma, Minimum): 0 nM
Sepiapterin Concentration in Plasma, Median ([1]; fed, 0.5 h): 0 nM
concentration at 2 h ([1]; fed, 0.5 h, read-out: Sepiapterin Concentration in Plasma, Minimum): 0 nM
concentration at 2 h ([1]; fed, 4 h, read-out: Sepiapterin Concentration in Plasma, Minimum): 0 nM
Sepiapterin Concentration in Plasma, Median ([1]; fed, 8 h): 0 nM
concentration at 2 h ([1]; fed, 8 h, read-out: Sepiapterin Concentration in Plasma, Minimum): 0 nM
Sepiapterin Concentration in Plasma, Mean ([1]; fed, 12 h): 0 nM
Sepiapterin Concentration in Plasma, Median ([1]; fed, 12 h): 0 nM
concentration at 24 h ([1]; fed, 12 h, read-out: Sepiapterin Concentration in Plasma, Maximum): 0 nM
concentration at 2 h ([1]; fed, 12 h, read-out: Sepiapterin Concentration in Plasma, Minimum): 0 nM
Sepiapterin Concentration in Plasma, Mean ([1]; fed, 24 h): 0 nM
Sepiapterin Concentration in Plasma, Median ([1]; fed, 24 h): 0 nM
concentration at 24 h ([1]; fed, 24 h, read-out: Sepiapterin Concentration in Plasma, Maximum): 0 nM
concentration at 2 h ([1]; fed, 24 h, read-out: Sepiapterin Concentration in Plasma, Minimum): 0 nM
AUC0-24 and AUC0-inf of BH4, subjects administered sepiapterin compared to subjects administered BH4 [2]: much higher
TEAE ([3]; human, in vivo, 10 mg/kg): 4
TEAE related to study drug ([3]; human, in vivo, 10 mg/kg): 1
≥1 AE ([3]; human, in vivo, 10 mg/kg): 5
Incidence of adverse events, fed compared to fasted subjects ([3]; single dose 10 mg/kg): decreased incidence of adverse events
5-HIAA Mean Concentration in CSF [4, 6]: 14.6 ng/mL
HVA Mean Concentration in CSF [4, 6]: 32.3 ng/mL
Sepiapterin Mean Concentration in CSF [4, 6]: 0 ng/mL
Sepiapterin in the CSF ([4]; 60 mg/kg sepiapterin, Day 1 or Day 7 +/-30 minutes from BH4 Tmax): not detected
Change in CSF concentration of 5-HIAA relative to Day 1 ([4]; 60 mg/kg sepiapterin, Day 7): -1.142 ng/mL
5-HIAA Mean Concentration in CSF [4, 7]: 13.4 ng/mL
HVA Mean Concentration in CSF [4, 7]: 33.7 ng/mL
Sepiapterin Mean Concentration in CSF [4, 7]: 0 ng/mL
Change in CSF concentration of HVA relative to Day 1 ([4]; 60 mg/kg sepiapterin, Day 7, increase): 1.378 ng/mL
CSF 5-HIAA concentration, one subject [4, 8]: 9.53 ng/mL
CSF HVA concentration, one subject [4, 8]: 29.93 ng/mL
CSF 5-HIAA concentration, one subject [4, 9]: 3.69 ng/mL
CSF HVA concentration, one subject [4, 9]: 10.02 ng/mL
Cmax [5, 10]: 0.6 ng/mL
Tmax [5, 10]: 3 h
AUC(0-inf) ([5]; human, plasma, po, 5 mg/kg, sepiapterin 5 mg/kg once daily, Day 1, read-out: AUC0-inf of sepiapterin): 1 ng·h/mL
Cmax [5, 11]: 0.6 ng/mL
Tmax [5, 11]: 3 h
AUC(0-inf) ([5]; human, plasma, po, 5 mg/kg, sepiapterin 5 mg/kg once daily, Day 7, read-out: AUC0-inf of sepiapterin): 0.7 ng·h/mL
Cmax [5, 12]: 1.2 ng/mL
Tmax [5, 12]: 2.6 h
AUC(0-inf) ([5]; human, plasma, po, 20 mg/kg, sepiapterin 20 mg/kg once daily, Day 1, read-out: AUC0-inf of sepiapterin): 3.9 ng·h/mL
Cmax [5, 13]: 1.3 ng/mL
Tmax [5, 13]: 2.7 h
AUC(0-inf) ([5]; human, plasma, po, 20 mg/kg, sepiapterin 20 mg/kg once daily, Day 7, read-out: AUC0-inf of sepiapterin): 4.3 ng·h/mL
Cmax [5, 14]: 2.7 ng/mL
Tmax [5, 14]: 3.3 h
AUC(0-inf) ([5]; human, plasma, po, 60 mg/kg, sepiapterin 60 mg/kg once daily, Day 1, read-out: AUC0-inf of sepiapterin): 21.2 ng·h/mL
Cmax [5, 15]: 2.8 ng/mL
Tmax [5, 15]: 3 h
AUC(0-inf) ([5]; human, plasma, po, 60 mg/kg, sepiapterin 60 mg/kg once daily, Day 7, read-out: AUC0-inf of sepiapterin): 16 ng·h/mL
AUC(0-t) ([5]; human, plasma, po, sepiapterin 60 mg/kg once daily, Day 1, read-out: AUC0-24 of sepiapterin): 23 ng·h/mL
Drug accumulation (plasma sepiapterin and BH4 after 1 and 7 days of treatment) ([5]; once daily for 7 days): no drug accumulation
